One assay addresses T1, Histone deacetylase 8 (Homo sapiens, UniProt Q9BY41).
T1 sequence (Q9BY41 whole entry): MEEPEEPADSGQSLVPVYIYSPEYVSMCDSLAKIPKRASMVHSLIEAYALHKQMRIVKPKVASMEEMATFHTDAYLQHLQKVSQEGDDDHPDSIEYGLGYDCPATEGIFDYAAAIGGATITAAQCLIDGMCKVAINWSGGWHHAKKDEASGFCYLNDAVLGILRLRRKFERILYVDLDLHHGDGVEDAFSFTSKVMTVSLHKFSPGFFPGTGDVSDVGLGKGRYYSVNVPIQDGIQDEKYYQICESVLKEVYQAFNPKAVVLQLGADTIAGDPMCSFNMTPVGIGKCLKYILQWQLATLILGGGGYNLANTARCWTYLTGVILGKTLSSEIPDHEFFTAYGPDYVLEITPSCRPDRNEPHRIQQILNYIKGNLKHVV
In words: Inhibition of C-terminal His-tagged human recombinant HDAC8 expressed in Sf9 cells after 30 mins by microtiter plate reader analysis.

Another assay concerns the target Histone deacetylase 2 (Homo sapiens, UniProt Q92769). In words: Inhibition of C-terminal GST-tagged human recombinant HDAC2 expressed in Sf9 cells after 30 mins by microtiter plate reader analysis. Format: cell-based.
A short description of assay [1]: Antiproliferative activity against human PC3 cells after 48 hrs by MTT assay. The class given is functional, cell-based. The note with it: PC-3, 48 h. A general note: Formazan colour is commonly taken as a measure of viable cells.
The subject of a further assay is MDA-MB-231. In words: Antiproliferative activity against human MDA-MB-231 cells after 48 hrs by MTT assay. The class given is functional, cell-based. The conditions noted are these: MDA-MB-231, 48 h.
Assay [2] is described as follows: Antiproliferative activity against human KG1 cells after 48 hrs by MTT assay. The note with it: KG-1, 48 h. The class given is functional, cell-based.
The target in assay [3] is Histone deacetylase (HDAC1 and HDAC2) (Homo sapiens, UniProt Q13547+Q92769). In words: Inhibition of HDAC1/2 in human HeLa cell nuclear extract using color de Lys as substrate preincubated for 5 mins followed by substrate addition measured after 30 min by microtiter plate reader analysis. The class given is cell-based.

SMILES strings stand for the structures.

Sequence of Histone deacetylase 2 (Q92769 whole entry): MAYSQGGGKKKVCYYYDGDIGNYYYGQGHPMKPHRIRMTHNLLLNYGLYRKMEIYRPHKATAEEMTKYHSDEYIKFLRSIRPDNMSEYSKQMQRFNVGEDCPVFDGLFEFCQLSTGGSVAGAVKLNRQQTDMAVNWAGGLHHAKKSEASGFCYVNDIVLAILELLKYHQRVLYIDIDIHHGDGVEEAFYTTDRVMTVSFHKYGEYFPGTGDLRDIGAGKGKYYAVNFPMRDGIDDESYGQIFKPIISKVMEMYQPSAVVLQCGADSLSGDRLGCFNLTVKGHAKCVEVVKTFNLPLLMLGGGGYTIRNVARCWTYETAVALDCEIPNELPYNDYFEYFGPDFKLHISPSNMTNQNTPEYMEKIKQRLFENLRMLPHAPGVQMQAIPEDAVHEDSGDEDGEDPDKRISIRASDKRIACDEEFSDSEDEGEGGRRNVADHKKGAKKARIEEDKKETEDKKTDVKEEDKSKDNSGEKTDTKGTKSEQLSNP

One may read the IC50 as the concentration at which inhibition is half-maximal. As to `O=C(CCCCCNc1nc(Cl)nc2c1ncn2Cc1ccccc1)NO`, the IC50 at Histone deacetylase 8 was found to be 1440 nM; at Histone deacetylase 2, 56 nM; in assay [1] it was 2830 nM; in the assay with MDA-MB-231, 1120 nM; in assay [2], 320 nM; in assay [3], 26 nM.
As for `CC(C)Cn1cnc2c(NCCCCCCC(=O)NO)nc(Cl)nc21`, the IC50 was 2010 nM on Histone deacetylase 8; 165 nM at Histone deacetylase 2; 1380 nM in assay [1]; 1650 nM in the assay on MDA-MB-231; 860 nM in assay [2]; 27 nM in assay [3].
In turn, `O=C(CCCCCCNc1nc(N2CCOCC2)nc2[nH]cnc12)NO` registered an IC50 in assay [3] of 157 nM.
Take `CC(C)n1cnc2c(NCCCCCCC(=O)NO)nc(N)nc21`: the half-inhibitory concentration (IC50) on Histone deacetylase 8 worked out at 3130 nM; in assay [1] it was 6860 nM; in the assay with MDA-MB-231, 3300 nM; in assay [2], 3430 nM.
For `CCCCn1cnc2c(NCCCCCC(=O)NO)nc(N3CCOCC3)nc21`, the IC50 in assay [3] stood at 130 nM.
